{"source": "paper PMC11521914", "about": "(Frontiers in Pharmacology, 2024)", "key": {"[1]": {"molecular_target": "T1, Glucose-6-phosphatase enzyme (G6Pase) (Rattus norvegicus, UniProt P43428)", "T1 construct": "dilutions of the supernatant enriched with microsomes were prepared with buffer; from tissue; host or cells: rat liver, microsome-enriched fraction", "T1 sequence (P43428 1-357)": "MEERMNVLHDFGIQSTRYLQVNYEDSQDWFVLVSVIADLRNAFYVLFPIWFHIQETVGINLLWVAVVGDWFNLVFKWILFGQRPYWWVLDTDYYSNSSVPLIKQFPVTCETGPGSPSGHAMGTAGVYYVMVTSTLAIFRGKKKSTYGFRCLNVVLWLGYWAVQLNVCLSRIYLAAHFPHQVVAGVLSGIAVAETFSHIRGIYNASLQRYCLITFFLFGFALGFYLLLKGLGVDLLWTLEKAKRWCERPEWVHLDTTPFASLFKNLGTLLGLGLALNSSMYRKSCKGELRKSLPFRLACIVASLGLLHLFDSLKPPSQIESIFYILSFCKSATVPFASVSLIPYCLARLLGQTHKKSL", "assay": "Glucose-6-phosphatase (G6Pase) enzyme activity inhibition assay", "format": "biochemical", "conditions": "rat liver microsome-enriched supernatant, 20 mM G6P", "protocol": "(§1) Livers were removed from 18-h fasted healthy rats (3), which were previously anesthetized with 5% isoflurane ([Unit for Laboratory Animal Medicine, 2023]). Then, they were homogenized in buffer (250 mM sucrose, 1 mM EDTA, 5 mM HEPES, pH 7.4), filtered, and subsequently subjected to differential centrifugation as described by [Andrade-Cetto and Cárdenas-Vázquez (2010)]. Both the microsome-enriched supernatant (containing the enzyme complex glucose-6-phosphatase) and the cytosolic supernatant (containing the enzyme fructose-1,6-bisphosphatase) were collected and stored at −40°C until use.\nColorimetric assays were carried out to detect the formation of a phosphomolybdate complex, which is proportional to the activity of the G6Pase enzyme complex. The reaction turns blue when G6Pase releases the inorganic phosphate and therefore the lower the color intensity, the greater the inhibition ([Arion, 1989]). […] Finally, the absorbance was measured at 830 nm.\n(§2) Finally, for in vitro experiments, absorbance values were transformed into activity percentages following the next formula: Enzyme activity %=AS−ASB/AC−ACB×100\n(§3) Where A S is the absorbance of the inhibitor sample at a specific concentration, A SB is the blank of the inhibitor sample, A C is the highest absorbance (without inhibitor), and A CB is the blank of the highest absorbance. […]"}, "[2]": {"molecular_target": "T2, Fructose-1,6-bisphosphatase enzyme (FBPase) (Rattus norvegicus, UniProt P19112)", "T2 construct": "The reaction was started by adding the cytosolic supernatant previously diluted in buffer without substrate; from tissue; host or cells: rat liver, cytosolic supernatant", "T2 sequence (P19112 1-363)": "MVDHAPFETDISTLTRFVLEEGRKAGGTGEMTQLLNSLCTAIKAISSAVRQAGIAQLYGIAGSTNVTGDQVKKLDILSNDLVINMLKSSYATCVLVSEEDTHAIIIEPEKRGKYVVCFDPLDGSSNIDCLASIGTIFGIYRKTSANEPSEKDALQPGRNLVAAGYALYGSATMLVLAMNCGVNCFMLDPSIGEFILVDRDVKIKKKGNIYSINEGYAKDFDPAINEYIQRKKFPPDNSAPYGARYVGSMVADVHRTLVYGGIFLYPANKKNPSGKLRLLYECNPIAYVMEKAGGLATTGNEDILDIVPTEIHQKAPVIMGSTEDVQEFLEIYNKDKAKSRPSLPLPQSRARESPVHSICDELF", "assay": "Fructose-1,6-bisphosphatase (FBPase) enzyme activity inhibition assay", "format": "biochemical", "conditions": "rat liver cytosolic supernatant, 0.1 mM FBP", "protocol": "as §1\nColorimetric assays were performed to detect the formation of a phosphomolybdate-malachite green complex with the inorganic phosphate released by the enzyme FBPase. […]\nThe assays were carried out with substrate-enriched buffer (5 µM EDTA, 5 mM MgCl2, 50 mM Tris-HCl, 0.1 mM FBP, pH 7.2) to which the inhibitors were added at different concentrations (AMP, EtOH-WCg, or junceic acid). […] Finally, the absorbance was measured at 630 nm.\nas §2, §3"}, "[3]": {"tested_on": "STZ-NA-hyperglycemic rats", "assay": "Fasting glucose and insulin levels, hyperglycemic rats", "format": "in vivo, Wistar rats", "conditions": "hyperglycemic rats fasted 12 h, 2 h; glibenclamide 5 mg/kg, EtOH-WCg 30 mg/kg, junceic acid 5.6 mg/kg b.w.", "protocol": "(§4) All procedures carried out on animals were approved by the Academic Ethics and Scientific Responsibility Commission (CEARC) of the School of Sciences, UNAM with protocol numbers PI_2021_08_23, PI_2022_21_05b, and PI_2022_22_07. Wistar rats of both sexes, 8 weeks old, were acquired and maintained under standard bioterium conditions (25°C, 55% humidity and 12:12 h light and dark photoperiod) with water and food ad libitum. Treatment administration (vehicle and samples) was performed orally with the help of an esophageal cannula. Blood samples were obtained from the tail vein and glucose measurements were performed in duplicate using Accu-Chek® Active glucometers. […]\n(§5) Normoglycemic (healthy) and hyperglycemic rats were used after 12 h of fasting selecting those with blood glucose levels between 90 and 110 mg/dL and 180–220 mg/dL, respectively. Before the administration of the treatment and every 30 min for 2 h, glucose levels were determined and additional blood samples (approximately 300 µL) were obtained, which were immediately centrifuged at 10,000 g for 10 min. […] Insulin quantification was performed using the immunoassay Rat/Mouse Insulin ELISA kit EZRMI-13KEMD Millipore/Merck ([Espinoza-Hernández et al., 2021]). […]\n(§6) Data are presented as mean ± standard error of the mean (SEM). […] Differences detected with p < 0.05 were considered statistically significant. […]"}, "[4]": {"tested_on": "normoglycemic (healthy) rats", "assay": "Fasting glucose and insulin levels, normoglycemic rats", "format": "in vivo, Wistar rats", "conditions": "normoglycemic rats fasted 12 h, 2 h, glibenclamide 5 mg/kg", "protocol": "(§7) All procedures carried out on animals were approved by the Academic Ethics and Scientific Responsibility Commission (CEARC) of the School of Sciences, UNAM with protocol numbers PI_2021_08_23, PI_2022_21_05b, and PI_2022_22_07. Wistar rats of both sexes, 8 weeks old, were acquired and maintained under standard bioterium conditions (25°C, 55% humidity and 12:12 h light and dark photoperiod) with water and food ad libitum. Treatment administration (vehicle and samples) was performed orally with the help of an esophageal cannula. Blood samples were obtained from the tail vein and glucose measurements were performed in duplicate using Accu-Chek® Active glucometers.\nas §5, §6"}, "[5]": {"tested_on": "STZ-NA-hyperglycemic rats", "assay": "Evaluation of the hypoglycemic effect (acute glucose curves)", "format": "in vivo, Wistar rats", "protocol": "as §7\nIn summary hyperglycemia was induced as described by [Masiello et al. (1998)], rats fasted for 12 h were administered intraperitoneally with 150 mg/kg b. w. of NA and, 15 min later, 65 mg/kg b. w. of STZ was injected intravenously. After 2 weeks, animals with blood glucose values above 180 mg/dL were selected to perform the tests described below.\nBasal glucose levels were assessed before giving the treatments. Immediately after the administration of treatments, glucose levels were monitored every hour for 3 h ([Espinoza-Hernández et al., 2021]). Thirty rats fasted for 4 h were divided into five groups (n = 6 each group): 1. Normoglycemic Control (N), administered with physiological solution (vehicle); 2. Hyperglycemic Control (H), which received physiological solution; 3. Hyperglycemic Control + glibenclamide, which was administered with 5 mg/kg b. w. (Aurax®) (HGli) ([Berridge et al., 1992]); 4. Hyperglycemic Group + EtOH-WCg, which received 30 mg/kg b. w. (HCg); and 5. Hyperglycemic Group + junceic acid, administered with 5.6 mg/kg b. w. (HJa)."}, "[6]": {"tested_on": "normoglycemic (healthy) rats", "assay": "Postprandial glucose and insulin levels (glucose tolerance test), normoglycemic rats", "format": "in vivo, Wistar rats", "conditions": "glucose load 2 g/kg", "protocol": "as §7, §5, §6"}, "[7]": {"tested_on": "STZ-NA-hyperglycemic rats", "assay": "Postprandial glucose and insulin levels (glucose tolerance test), hyperglycemic rats", "format": "in vivo, Wistar rats", "conditions": "glucose load 2 g/kg", "protocol": "as §4, §5, §6"}, "[8]": {"tested_on": "normoglycemic (healthy) rats", "assay": "Insulin tolerance tests (insulin sensitivity assessment)", "format": "in vivo, Wistar rats", "conditions": "healthy rats fasted 4 h", "protocol": "as §7\nFirst, basal glucose was determined and, immediately after, treatments were given. Forty-5 min later, glucose levels were measured and then isophane insulin (Aurax®; 0.5 U/kg b. w.) was administered intraperitoneally. Glucose levels were monitored at minutes 15, 30, 60, and 120 after insulin injection. In total, 24 rats were divided into four groups (n = 6 each group): 1. Control, which received physiological solution (C); 2. […]\nWhere Tx is the value of glucose or insulin at each time and T0 is the baseline value. Next, AUC were calculated and compared by applying t tests for intergroup comparisons and repeated measures ANOVA followed by Dunnett post hoc tests for intragroup comparisons. […]"}}, "data": [{"smiles": "O=C(/C=C/c1ccc(O)c(O)c1)O[C@@H]1C[C@](O)(C(=O)O)C[C@@H](O)[C@H]1O", "note": "[Clorogenic acid, chlorogenic acid]", "values": [{"measurement": "IC50", "setting": "[1]", "result": 346, "unit": "µM"}, {"measurement": "Inhibition %", "setting": "[1]", "result": 83, "unit": "%"}]}, {"smiles": "Nc1ncnc2c1ncn2[C@@H]1O[C@H](COP(=O)(O)O)[C@@H](O)[C@H]1O.O", "note": "[AMP, adenosine 5′-monophosphate monohydrate]", "values": [{"measurement": "IC50", "setting": "[2]", "result": 95, "unit": "µM"}, {"measurement": "Inhibition %", "setting": "[2]", "result": 96, "unit": "%"}]}, {"smiles": "COc1ccc(Cl)cc1C(=O)NCCc1ccc(S(=O)(=O)NC(=O)NC2CCCCC2)cc1", "note": "[glibenclamide]", "values": [{"measurement": "effect on blood glucose in fasting", "setting": "[3]", "result": "significant hypoglycemic effect"}, {"measurement": "effect on plasma insulin in fasting", "setting": "[3]", "result": "increase in plasma insulin"}, {"measurement": "effect on plasma insulin in fasting", "setting": "[4]; EtOH-WCg 30 mg/kg b.w.", "result": "increase in plasma insulin"}, {"measurement": "effect on blood glucose in fasting", "setting": "[4]; EtOH-WCg 30 mg/kg, junceic acid 5.6 mg/kg b.w.", "result": "significant hypoglycemic effect"}, {"measurement": "hypoglycemic effect compared with the hyperglycemic control group (H)", "setting": "[5]; 60 min after administration, maintained throughout the experiment, p < 0.05", "result": "significant hypoglycemic effect"}, {"measurement": "glucose decrease at the end of the study", "setting": "[5]; STZ-NA-hyperglycemic rats fasted 4 h, oral, 3 h curve, glibenclamide 5 mg/kg, EtOH-WCg 30 mg/kg, junceic acid 5.6 mg/kg b.w.", "result": 57, "unit": "%"}, {"measurement": "decrease of total blood glucose (AUC) compared with control (H)", "setting": "[5]; STZ-NA-hyperglycemic rats fasted 4 h, oral, glibenclamide 5 mg/kg, EtOH-WCg 30 mg/kg, junceic acid 5.6 mg/kg b.w.", "result": 65, "unit": "%"}]}, {"smiles": "CCOc1cc(CC(=O)N[C@@H](CC(C)C)c2ccccc2N2CCCCC2)ccc1C(=O)O", "note": "[repaglinide]", "values": [{"measurement": "increase of insulin levels", "setting": "[6]; healthy rats, at 30 min, repaglinide 1 mg/kg b.w.", "result": "more than 500%"}, {"measurement": "effect on the hyperglycemic peak after the glucose load", "setting": "[6]; normoglycemic rats, repaglinide 1 mg/kg, EtOH-WCg 30 mg/kg, junceic acid 5.6 mg/kg b.w.", "result": "significantly decreased the hyperglycemic peak"}, {"measurement": "increase of insulin levels", "setting": "[7]; at 30 min, repaglinide 1 mg/kg b.w.", "result": "under 25%"}, {"measurement": "effect on postprandial hyperglycemia after the glucose load", "setting": "[7]; repaglinide 1 mg/kg, EtOH-WCg 30 mg/kg, junceic acid 5.6 mg/kg b.w.", "result": "significantly decreased the hyperglycemic peak"}]}, {"smiles": "CCc1ccc(CCOc2ccc(CC3SC(=O)NC3=O)cc2)nc1", "note": "(centres unmarked) [pioglitazone]", "values": [{"measurement": "inverse AUC and KITT analyzes compared with control (C)", "setting": "[8]; insulin tolerance test, 120 min", "result": "eliminated more glucose throughout the experiment at a higher removal rate than C"}, {"measurement": "potentiation of the glucose-lowering effect of insulin compared with control (C)", "setting": "[8]; isophane insulin 0.5 U/kg i.p. 45 min after treatment, pioglitazone 20 mg/kg, EtOH-WCg 30 mg/kg, junceic acid 5.6 mg/kg b.w.", "result": "exacerbated the glucose-lowering effect of insulin"}]}]}
